Data on one compound can be found in patent US20250375453A1, “HIGH-EFFICIENCY ANTIMICROBIAL COMPOSITION” (CM4CURE S.A., priority 2023, published 2025).

In one experiment the test system is Candida krusei. The settings on record: cited from earlier work.
In another experiment the test system is Fusobacterium nucleatum. Particulars: cited from earlier work.
In a further experiment the test system is Escherichia coli. Particulars: cited from earlier work.
Experiment [1] relates to Staphylococcus aureus (MRSA, ATCC 6538). Kind of experiment: Real-time microcalorimetric measurement of bacterial metabolic activity (heat flow, Calscreener). The experiment is classed as cell-based. How it is done: Staphylococcus aureus (MRSA, ATCC 6538) was grown overnight in TSB (tryptic soy broth) medium, before being diluted 1×10^6 fold in fresh TSB. Subsequently […] aliquots of diluted bacteria suspensions were respectively supplemented with 1 and 2 mg/L of chlorhexidine (digluconate solution, 20% in H2O, Merck). […] The aqueous solution of chlorhexidine and the ethanol-based solution of triafluocyl were kept refrigerated. Chlorhexidine, triafluocyl or both, and ethanol as a vehicle were added to the bacterial suspensions to obtain the given concentrations followed by a brief vortexing. Bacterial aliquots were then distributed in the dedicated non-activated inserts of a 48-well plate and grown for 24 h or more under static conditions at 37 C using Calscreener technology to measure bacterial growth and metabolic activity in Real-Time as described in https://cordis.europa.eu/project/id/784514.
Staphylococcus aureus (MRSA, ATCC 6538) was grown overnight in TSB (tryptic soy broth) medium, before being diluted 1×10^6 fold in fresh TSB. Subsequently […] aliquots of diluted bacteria suspensions were respectively supplemented with 0.25, 0.5 and 1 μg/mL of chlorhexidine (digluconate solution, 20% in H2O, Merck) or alexidine dihydrochloride (stock solution of 3 mg/mL in ethanol, Merck).
The aqueous solution of chlorhexidine and the ethanol-based solution of alexidine were kept refrigerated. Chlorhexidine, alexidine, and ethanol as a vehicle were added to the bacterial suspensions to obtain the given concentrations followed by a brief vortexing. Bacterial aliquots were then distributed in the dedicated non-activated inserts of a 48-well plate and grown for 24 h or more under static conditions at 37 C using Calscreener technology to measure bacterial growth and metabolic activity in Real-Time as described in https://cordis.europa.eu/project/id/784514.
Staphylococcus aureus (MRSA, ATCC 6538) was grown overnight in TSB (tryptic soy broth) medium, before being diluted 1×10^6 fold in fresh TSB. Subsequently […] aliquots of diluted bacteria suspensions were respectively supplemented with […] of alexidine dihydrochloride (stock solution of 3 mg/mL in ethanol, Merck). […] The ethanol-based solutions of alexidine and fluometacyl were stored at −20° C.
Alexidine alone or with fluometacyl, and ethanol as a vehicle were added to the bacterial suspensions to obtain the given concentrations followed by a brief vortexing. Bacterial aliquots were then distributed in the dedicated non-activated inserts of a 48-well plate and grown for 24 h or more under static conditions at 37 C using Calscreener technology to measure bacterial growth and metabolic activity in Real-Time.

Another experiment concerns Klebsiella spp. Particulars: cited from earlier work.
For another experiment, the system named is Streptococcus mutans. The settings on record: cited from earlier work.
The subject of experiment [2] is Pseudomonas aeruginosa (ATCC 15442). Kind of experiment: Real-time microcalorimetric measurement of bacterial metabolic activity (heat flow, Calscreener). The experiment is classed as cell-based. Particulars: chlorhexidine digluconate alone, tested 1-24 mg/L, TSB, 37 C, 24 h or more. The procedure:
Pseudomonas aeruginosa (ATCC 15442) was grown overnight in TSB (tryptic soy broth) medium, before being diluted 1×10^7 fold in fresh TSB. Subsequently […] aliquots of diluted bacteria suspensions were respectively supplemented with 1, 2, 4, 6, 12 and 24 mg/L of chlorhexidine (digluconate solution, 20% in H2O, Merck). The aqueous solution of chlorhexidine was kept refrigerated according to the manufacturer's technical sheet. Chlorhexidine or mQH2O as a vehicle were added to the bacterial suspensions to obtain the given concentrations followed by a brief vortexing. Bacterial aliquots were then distributed in the dedicated non-activated inserts of a 48-well plate and grown for 24h or more under static conditions at 37 C using Calscreener technology to measure bacterial growth and metabolic activity in Real-Time as described in https://cordis.europa.eu/project/id/784514.
For the study of the combination of chlorhexidine and triafluocyl aforementioned diluted bacterial suspensions were supplemented with either chlorhexidine alone (1, 2, 4, 6, 12 mg/L) or mixed with triafluocyl (20 mg/L, Polpharma). Triafluocyl was stored in absolute ethanol in the refrigerator at a concentration of 3 mg/mL. Triafluocyl, chlorhexidine or both, and ethanol as a vehicle were added to the bacterial suspensions to obtain the given concentrations.
Pseudomonas aeruginosa (ATCC 15442) was grown overnight in TSB (tryptic soy broth) medium, before being diluted 1×10^7 fold in fresh TSB. Subsequently […] aliquots of diluted bacteria suspensions were respectively supplemented with […] of alexidine dihydrochloride (stock solution of 3 mg/mL in ethanol, Merck). […] The stock solutions of alexidine and fluometacyl were kept frozen according to the manufacturer's technical sheet. Alexidine alone or with fluometacyl, and ethanol as a vehicle were added to the bacterial suspensions to obtain the given concentrations followed by a brief vortexing. […]

Experiment [3] concerns Staphylococcus aureus MSSA. The settings on record: cited from earlier work.
Another experiment concerns Porphyromonas gingivalis. The settings on record: cited from earlier work.
The subject of the next experiment is Lactobacillus reuteri. The settings on record: cited from earlier work.
The next experiment deals with Candida albicans (CA). Kind of experiment: MIC in monotherapy and in combination therapy (ISO standard 20776-1). The experiment is classed as cell-based. The text has this:
(§1) Summary of MIC Values for Fluometacyl (FLC)+Chlorhexidine (CHX) Tested Against MRSA, Enterococcus faecalis (VRE), Pseudomonas aeruginosa (PA) and Candida albicans (CA).
(§2) By Minimum Inhibitory Concentration (MIC) one means the lowest concentration of antimicrobial that prevents visible growth of a microorganism (determined according to ISO standard 20776-1).
(§3) This finds an implication in combining many known antimicrobials together rather than discovering new chemical entities.

In experiment [4] the test system is Pseudomonas aeruginosa (PA). The experiment is described as above. Type of experiment: cell-based.
Description: as §1, §2, §3

The subject of experiment [5] is Staphylococcus aureus (MRSA). The experiment is described as above. The experiment is classed as cell-based.
Description: as §1, §2, §3

The next experiment deals with Pseudomonas aeruginosa. The settings on record: cited from earlier work.
In the next experiment the test system is Candida albicans. Particulars: cited from earlier work.
[6] abbreviates: MIC combination / MIC monotherapy.

With `[H]/N=C(\N/C(=N/[H])NCCCCCCNC(=N)NC(=N)Nc1ccc(Cl)cc1)Nc1ccc(Cl)cc1` [Chlorhexidine, chlorhexidine], the MIC of chlorhexdine in the experiment on Candida krusei was 150 µg/mL; in the experiment on Fusobacterium nucleatum it was 1.8 µg/mL; in the experiment with Escherichia coli, 2 to 16 µg/mL; in the experiment with Klebsiella spp. it was 8 to 16 µg/mL; with Streptococcus mutans, 0.9 to 4 µg/mL; in experiment [3], 0.25 to 8 µg/mL. In addition, the MIC of chlorhexdine is 0.9 µg/mL with Porphyromonas gingivalis, 0.125 to 4 µg/mL with Lactobacillus reuteri, 16 to 32 µg/mL in the experiment with Pseudomonas aeruginosa and 1 to 16 µg/mL in the experiment with Candida albicans. The “effect on metabolic activity (heat flow)” value in experiment [1] (chlorhexidine 1 mg/L alone) and in [1] (chlorhexidine 1 mg/mL alone (Example 3)) was “strong shift in a metabolic activity” throughout. In experiment [1] (chlorhexidine digluconate alone, tested 1 and 2 mg/L), the “concentration with full growth inhibition or bactericidal effect” value came to 2 mg/L. The “concentration that fully inhibits bacterial proliferation” value in experiment [2] came to 24 mg/L. The MIC turned out to be 4000 µg/mL in the experiment on Candida albicans (CA) (Candida albicans, antimicrobial alone, read-out: MIC Monotherapy (X)); 16000 µg/mL in [4] (Pseudomonas aeruginosa, antimicrobial alone, read-out: MIC Monotherapy (X)); 1000 µg/mL in experiment [5] (Staphylococcus aureus, MRSA, antimicrobial alone, read-out: MIC Monotherapy (X)). The entries for the “Ratio Y/X” value (in the experiment on Candida albicans (CA) (setting [6]); in experiment [4] (setting [6]); in experiment [5] (setting [6])) were 0.5, 0.25 and 0.25-0.5, respectively. Further, the “MIC combination dual therapy (Y)” value with Candida albicans (CA) (in FLC + CHX combination) is 2000 µg/mL; in experiment [4] (in FLC + CHX combination), 4000 µg/mL; in experiment [5] (in FLC + CHX combination), 250 to 500 µg/mL.

The term MIC denotes the lowest concentration that inhibits growth of the organism.
